Molecules are shown by their SMILES.

Conditions in the first series: not given
Compound `FC(F)(F)CI` gave a boiling point of 54.5 °C.
Same read-out and setting: as for `C=CC(OC)OC`, the figure is 88 °C.
Consider `CCCCNC(=O)c1ccc(Cl)cc1O`, for which the melting point came to 91.5 °C.
On the same count and under the same terms, the same measure for `O=C(O)c1cc(O)ccc1O`: 200 °C.
The compound `CCCCc1c(C)nc(NCC)nc1OS(=O)(=O)N(C)C` gave a log10 vapour pressure (mmHg) of -6.12 and a melting point of 50.5 °C.
As for `CC(=O)CC(=O)O`, the melting point was 36.5 °C.
Still for that read-out and setting: the same measure for `O=C(O)Cc1ccc(Br)cc1`: 116 °C; for `O=CCC(O)[C@H](O)CO` (stereo in doubt): 91 °C.
For the compound `O=C(Nc1ccc(Cl)cc1)Nc1ccc(Cl)c(Cl)c1`, the melting point came out at 256 °C and the ready biodegradability entry was “not readily biodegradable”.
Regarding `Nc1cccnc1`, the boiling point is 252 °C, the melting point amounted to 64.5 °C and the ready biodegradability entry is given as “not readily biodegradable”.
`ClC(Cl)C(Cl)(Cl)Cl` came in with a boiling point of 160 °C, a log10 vapour pressure (mmHg) of 0.544 and a melting point of -29 °C.
On to `OCc1c(F)c(F)c(F)c(F)c1F`, for which the boiling point worked out at 181 °C and the melting point was 37.5 °C.
`NC(=O)c1cc(Cl)cc(Cl)c1N`: the melting point amounted to 162 °C.
As to `CCc1cc(C)cc(O)c1`, the boiling point was found to be 236 °C, the log10 vapour pressure (mmHg) is -2.06 and the melting point came to 51.6 °C.
As for `CC(C)(CO)CO`, the boiling point came to 208 °C, the melting point worked out at 130 °C and the ready biodegradability result was “not readily biodegradable”.
`C#CC(=C)C` registered a boiling point of 32 °C and a melting point of -113 °C.
`CCc1nccnc1OC` showed a log10 Henry constant (atm·m³/mol) of -4.83.
`C=CCCCCCCC` had a boiling point of 147 °C, a log10 Koa of 3.83, a log10 vapour pressure (mmHg) of 0.732 and a melting point of -81.3 °C. Further, the ready biodegradability result is reported as “not readily biodegradable”.
As to `CCCCCCCCCCCCCCCCCCN(C)C`, the melting point was determined as 22.9 °C.
The same measure, in the same setting: as for `OC1[C@@H](O)[C@H](O)C[C@@H](O)[C@@H]1O` (stereo partly drawn), the figure is 236 °C.
`CC(C)=CCC1=C(O)C(C(=O)CC(C)C)=C(O)C(CC=C(C)C)(CC=C(C)C)C1=O` had a melting point of 93 °C.
The compound `CC(Br)C(C)Br` (stereo not drawn) returned a boiling point of 161 °C, a log10 vapour pressure (mmHg) of 0.58 and a melting point of -24 °C.
Compound `BrCc1ccc(CBr)cc1` showed a boiling point of 245 °C and a melting point of 144 °C.
Consider `c1ccc(-n2cccc2)cc1`, for which the boiling point was 234 °C and the melting point is 62 °C.
In the case of `CCCNC(=O)NCCC`, the boiling point came to 255 °C and the melting point turned out to be 105 °C.
`CCCCCCNC(=O)COC(=O)c1ccccc1` came in with a melting point of 130 °C.
Compound `Cc1ccc(Cl)cc1N` yielded a boiling point of 239 °C and a melting point of 26 °C.
In turn, `CCN(CC)C(=O)[C@@H]1C=C2c3cccc4[nH]cc(c34)C[C@H]2N(C)C1` gave a melting point of 82.5 °C.
Still for that read-out and setting: as for `c1ccc2cc(Oc3ccc4ccccc4c3)ccc2c1`, the figure is 105 °C.
In turn, `Clc1c(Cl)c(Cl)c(C(Cl)Cl)c(Cl)c1Cl` displayed a boiling point of 334 °C and a melting point of 120 °C.
With `CC(C)(C)c1cccc(O)c1`, the boiling point stood at 240 °C, the log10 vapour pressure (mmHg) is -1.7, the melting point worked out at 42.3 °C and the ready biodegradability entry is listed as “not readily biodegradable”.
`C=C[Si](OCC)(OCC)OCC`: the log10 vapour pressure (mmHg) was determined as 0.358.
As for `FC(F)(F)C(F)(F)C(Cl)(Cl)Cl`, the boiling point came out at 74 °C and the melting point was -80 °C.
Consider `CC(C)(Oc1ccc(Cl)cc1)C(=O)OCCOC(=O)c1cccnc1`, for which the melting point came out at 100 °C.
The same measure, in the same setting: the same measure for `CCC(C(=O)O)c1ccc(N2Cc3ccccc3C2=O)cc1` (stereo not drawn): 183 °C; for `Cc1cc(C(=O)O)ccc1N`: 170 °C.
Consider `C=CC=COC`, for which the boiling point worked out at 91.5 °C.
Turning to `Cc1ccc(Cl)c(Nc2ccccc2C(=O)O)c1Cl`, the melting point amounted to 257 °C.
In turn, `CCOC(=O)C=C1SC(N2CCCCC2)C(=O)N1CC` (stereo not drawn) registered a melting point of 86.5 °C.
With `CC(C)CC[N+](=O)[O-]`, the boiling point stood at 164 °C and the melting point worked out at 97 °C.
As for `CCCCCCCC/C=C\CCCCCCCCN`, the melting point was 246 °C.
`CCCCCS(=O)CCCCC` had a melting point of 58 °C.
Compound `C(COCCOCC1CO1)OCCOCC1CO1` (stereo not drawn) displayed a melting point of -13 °C.
Regarding `CCC(=O)OC(=O)CC`, the boiling point amounted to 170 °C, the log10 vapour pressure (mmHg) is 0.134, the melting point is -45 °C and the ready biodegradability entry is reported as “readily biodegradable”.
Take `NC=O`: the boiling point is 220 °C, the log10 vapour pressure (mmHg) was -1.21, the melting point was 2.55 °C and the ready biodegradability entry is reported as “readily biodegradable”.
For `Cc1nn(C)c(OCC(=O)c2ccccc2)c1C(=O)c1ccc(Cl)cc1Cl`, the log10 vapour pressure (mmHg) is -6.44 and the melting point was 112 °C.
Compound `Cc1ccc2ccc3ccc(C)nc3c2n1` gave a melting point of 160 °C.
`O=C(CBr)c1ccc(Br)cc1` returned a melting point of 111 °C.
On to `COc1cc(O)ccc1O`, for which the melting point was determined as 90 °C.
Same read-out and setting: as for `CN(C)C(N)=O`, the figure is 184 °C; as for `CC1=CC(=O)C=C(C)C1=O`, 72.5 °C.
Consider `CC(O)(CCO)CCO`, for which the ready biodegradability entry is listed as “not readily biodegradable”.
As for `Oc1c(Br)cc(Br)cc1Br`, the boiling point worked out at 286 °C, the melting point is 95.5 °C and the ready biodegradability entry is “readily biodegradable”.
Take `O=C(O)CCCOc1ccc(Cl)cc1Cl`: the boiling point is 324 °C and the melting point amounted to 118 °C.
For the compound `CS`, the boiling point came to 5.9 °C, the log10 vapour pressure (mmHg) is 3.18, the melting point is -123 °C and the ready biodegradability result was “readily biodegradable”.
On to `CC1CCCC1=O` (stereo not drawn), for which the boiling point was 140 °C and the melting point was -75 °C.
`CCCC(=O)C(C)(C)C` came in with a boiling point of 147 °C.
In turn, `O=c1nn[nH]c2ccccc12` came in with a melting point of 217 °C.
The compound `CC(=O)C(C)Cl` (stereo not drawn) had a boiling point of 115 °C.
In the case of `N#Cc1cccc(C(F)(F)F)c1`, the boiling point stood at 189 °C and the melting point came out at 14.5 °C.
`Nc1cccc2c1Cc1ccccc1-2` displayed a melting point of 126 °C.
Regarding `BrCCI`, the boiling point came out at 163 °C and the melting point turned out to be 28 °C.
The compound `CCSc1ccccc1` showed a boiling point of 205 °C.
In the case of `Nc1cccc([N+](=O)[O-])c1`, the boiling point amounted to 306 °C, the log10 Henry constant (atm·m³/mol) was -8.1, the log10 Koc (L/kg) is 1.73 and the log10 vapour pressure (mmHg) is -4.02. Besides, the melting point is 114 °C and the ready biodegradability entry is reported as “not readily biodegradable”.
`FC(F)(F)C(F)(Cl)Cl` came in with a boiling point of 4 °C, a log10 vapour pressure (mmHg) of 3.21 and a melting point of -56.6 °C.
`C[SiH]1O[SiH](C)O[SiH](C)O[SiH](C)O1` (stereo not drawn): the boiling point was 134 °C and the melting point is -65 °C.
On the same counts, the results for `Cl[C@@H]1CCCC[C@H]1Cl` are 200 °C and -1.5 °C.
As for `C=C[C@H]1C[N@@]2CCC1C[C@H]2c1[nH]c2ccccc2c1CCO`, the melting point was 186 °C.
In the case of `Clc1cc(Cl)cc(-c2c(Cl)c(Cl)cc(Cl)c2Cl)c1`, the log10 Henry constant (atm·m³/mol) was -4.54.
For `O=C(F)c1ccccc1`, the boiling point came out at 154 °C and the melting point is -28 °C.
In the case of `CC(C)CS(=O)(=O)CC(C)C`, the boiling point is 265 °C and the melting point came out at 17 °C.
`Fc1ccc(N2CCNCC2)cc1` displayed a melting point of 31.5 °C.
`CCCCOCCOCCOCCCC` yielded a boiling point of 256 °C, a log10 vapour pressure (mmHg) of -1.58 and a melting point of -60 °C.
`C1CCCC1`: the boiling point turned out to be 49.3 °C, the log10 Henry constant (atm·m³/mol) was -0.818, the log10 biodegradation half-life (days) is 1.7 and the log10 vapour pressure (mmHg) stood at 2.5. For the same compound, the melting point is -93.8 °C.
The compound `COc1ccc(Cn2cncn2)cc1` returned a melting point of 41.5 °C.
As to `O=C(Nc1ccccc1)Nc1ccccc1`, the boiling point stood at 262 °C, the log10 vapour pressure (mmHg) was -5.12 and the melting point was found to be 239 °C.
Consider `CCCCCCCCCCCC(=O)OOC(=O)CCCCCCCCCCC`, for which the melting point amounted to 49 °C and the ready biodegradability result was “readily biodegradable”.

The same series, now with this note: fish.
In turn, `Nc1cccnc1` came in with a log10 BCF of 0.32.
As to `CC(C)(CO)CO`, the log10 BCF was found to be 0.67.
The compound `C=CCCCCCCC` had a log10 BCF of 3.17 and a log10 biotransformation half-life (days) of 0.52.
For the compound `Oc1c(Br)cc(Br)cc1Br`, the log10 BCF was determined as 2.71.
For `Nc1cccc([N+](=O)[O-])c1`, the log10 BCF was found to be 0.48 and the log10 biotransformation half-life (days) was -0.77.

The boiling point is the temperature at which the vapour pressure of the liquid equals the pressure above it. For orientation: melting point means the temperature of the solid-liquid transition.

Source of the values: the OPERA property sets (Mansouri et al. 2018).
